Like-named read-outs stand apart in the source and are kept apart here.
Tests used:
FAAH [1] = target: T1, FAAH (Rattus norvegicus, UniProt P97612); test: FAAH enzyme assay, hydrolysis of 14C-oleamide by solubilized liver plasma membrane extract; type: biochemical
T1 construct: using a solubilized liver plasma membrane extract containing FMH; from tissue; host or cells: liver plasma membrane (solubilized extract)
T1 sequence (P97612 1-579): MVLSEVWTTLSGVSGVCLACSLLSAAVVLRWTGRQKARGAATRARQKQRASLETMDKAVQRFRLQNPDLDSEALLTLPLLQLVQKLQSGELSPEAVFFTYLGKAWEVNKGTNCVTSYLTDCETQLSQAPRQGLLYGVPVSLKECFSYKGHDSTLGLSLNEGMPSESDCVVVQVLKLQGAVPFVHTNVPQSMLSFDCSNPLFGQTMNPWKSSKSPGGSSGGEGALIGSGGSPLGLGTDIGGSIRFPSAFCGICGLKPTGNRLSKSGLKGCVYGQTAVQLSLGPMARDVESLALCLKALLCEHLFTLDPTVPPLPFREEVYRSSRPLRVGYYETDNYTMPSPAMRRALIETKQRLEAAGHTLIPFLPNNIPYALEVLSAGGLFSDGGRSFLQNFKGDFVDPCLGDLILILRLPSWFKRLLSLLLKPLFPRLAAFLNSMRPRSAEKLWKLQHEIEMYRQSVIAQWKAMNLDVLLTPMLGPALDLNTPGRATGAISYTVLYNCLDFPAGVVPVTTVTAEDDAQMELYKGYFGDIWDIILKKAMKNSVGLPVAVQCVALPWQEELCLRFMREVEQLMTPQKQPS
Description: All enzyme assays were performed at 20-23° C. using a solubilized liver plasma membrane extract containing […] in a reaction buffer of 125 mM Tris, 1 mM EDTA, 0.2% glycerol, 0.02% Triton X-100, 0.4 mM HEPES, pH 9.0 buffer (Patricelli, M. P. et al. Bioorg. Med. Chem. Lett. 1998, 8, 613-618; Patterson, J. E., et al. J. Am Chem. Soc. 1996, 118, 5938-5945). The initial rates of hydrolysis were monitored by following the breakdown of ^14C-oleamide to oleic acid as described previously (Cravatt, B. F. et al. Science 1995, 268, 1506-1509; Patricelli, M. P. et al., 1998). The inhibition was reversible, non time-dependent. Linear least squares fits were used for all reaction progress curves and R^2 values were consistently >0.97. IC50 values were determined from the inhibition observed at 3-5 different test compound concentrations (from three or more trials at each concentration) using the formula IC50=[I]/[(K0/Ki)−1], where K0 is the control reaction rate without inhibitor and Ki is the rate with test compound at concentration [I] (Conde-Frieboes, K., et al. J. Am. Chem. Soc. 1996, 118, 5519-5525). Ki values were determined by the Dixon Method (x-intercepts of weighted linear fits of [I] versus 1/rate plots at constant substrate concentration, which were converted to Ki values using the formula Ki=−xint/[1+[S]/Km]).

FAAH [2] = target: T2, FAAH (Mus musculus, UniProt O08914); test: Proteome-wide serine hydrolase selectivity screen, competition with RPFP active site labeling; type: binding; details: inhibition of RPFP labeling
T2 construct: from tissue
T2 sequence (O08914 1-579): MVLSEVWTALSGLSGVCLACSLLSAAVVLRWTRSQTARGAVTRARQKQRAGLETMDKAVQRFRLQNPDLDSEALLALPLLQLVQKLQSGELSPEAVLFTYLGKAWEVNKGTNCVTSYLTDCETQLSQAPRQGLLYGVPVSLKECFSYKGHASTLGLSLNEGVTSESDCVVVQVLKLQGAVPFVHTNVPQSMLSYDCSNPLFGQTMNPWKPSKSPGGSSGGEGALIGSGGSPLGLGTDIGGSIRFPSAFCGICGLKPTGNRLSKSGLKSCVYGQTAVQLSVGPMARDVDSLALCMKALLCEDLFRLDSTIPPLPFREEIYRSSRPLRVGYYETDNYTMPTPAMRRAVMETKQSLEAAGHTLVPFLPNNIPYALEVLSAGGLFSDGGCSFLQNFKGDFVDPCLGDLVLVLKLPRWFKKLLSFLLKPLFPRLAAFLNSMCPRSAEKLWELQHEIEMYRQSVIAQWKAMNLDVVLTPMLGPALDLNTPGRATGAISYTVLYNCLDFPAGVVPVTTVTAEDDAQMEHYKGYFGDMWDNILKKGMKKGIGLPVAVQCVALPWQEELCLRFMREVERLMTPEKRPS
Text: (§1) Serine hydrolases represent one of the largest classes of enzymes collectively comprising approximately 3% of the predicted Drosophila proteome. Subclasses include serine proteases, lipases, esterases, amidases, and transacetylases.

KIAA1363 = target: T3, KIAA1363 (Mus musculus, UniProt Q8BLF1); test: as above; type: binding; details: inhibition of RPFP labeling, read-out: KIAA IC50
T3 construct: from tissue
T3 sequence (Q8BLF1 1-408): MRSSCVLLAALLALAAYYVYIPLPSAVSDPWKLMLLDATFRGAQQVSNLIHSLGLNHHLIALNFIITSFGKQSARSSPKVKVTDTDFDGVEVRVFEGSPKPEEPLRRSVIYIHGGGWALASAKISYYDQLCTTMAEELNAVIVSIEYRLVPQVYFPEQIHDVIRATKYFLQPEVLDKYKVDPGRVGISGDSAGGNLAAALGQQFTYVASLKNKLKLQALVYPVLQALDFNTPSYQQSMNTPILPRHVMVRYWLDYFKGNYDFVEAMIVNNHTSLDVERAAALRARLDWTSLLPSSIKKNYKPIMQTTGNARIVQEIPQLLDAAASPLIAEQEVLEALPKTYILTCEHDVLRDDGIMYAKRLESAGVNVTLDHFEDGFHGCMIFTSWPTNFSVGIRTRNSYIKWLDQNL
Text: as §1

[3] = target: T4, triacylglycerol hydrolase (TGH) (Mus musculus, UniProt Q8VCT4); test: as above; type: binding; details: inhibition of RPFP labeling
T4 construct: from tissue
T4 sequence (Q8VCT4 19-565): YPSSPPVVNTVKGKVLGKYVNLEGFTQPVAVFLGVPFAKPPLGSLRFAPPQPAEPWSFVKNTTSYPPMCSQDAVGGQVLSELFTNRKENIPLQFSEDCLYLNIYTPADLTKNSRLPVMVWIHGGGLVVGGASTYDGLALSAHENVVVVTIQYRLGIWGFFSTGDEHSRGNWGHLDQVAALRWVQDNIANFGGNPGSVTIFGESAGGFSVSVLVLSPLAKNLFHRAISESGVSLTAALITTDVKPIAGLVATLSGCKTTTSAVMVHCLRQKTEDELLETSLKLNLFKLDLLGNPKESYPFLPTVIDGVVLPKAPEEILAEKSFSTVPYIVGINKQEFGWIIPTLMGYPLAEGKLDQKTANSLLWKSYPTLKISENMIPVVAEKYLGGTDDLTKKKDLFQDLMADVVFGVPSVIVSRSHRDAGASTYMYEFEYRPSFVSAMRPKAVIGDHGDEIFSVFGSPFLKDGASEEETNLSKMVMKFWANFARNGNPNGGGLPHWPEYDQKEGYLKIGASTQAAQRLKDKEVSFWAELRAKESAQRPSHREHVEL
Text: as §1
Biotinylated (B) or fluorescently-tagged (rhodamine, R) PEG-fluorophosphonate (BPFP or RPFP, respectively) have been used to isolate and identify (BPFP) or quantitate (RPFP) proteome serine hydrolases through selective, irreversible active site labeling (Kidd, D., et al., 2001; Liu, Y., et al., 1999). Extending this to the assessment of inhibitor selectivity required incubation of the proteome with RPFP in the presence of systematically varied concentrations of inhibitor followed by SDS-PAGE to detect serine hydrolases sensitive to the inhibitor (Leung, D., et al., 2003). A resulting inhibition of RPFP active site labeling correlated with inhibitor affinity for the target and permitted the simultaneous assessment of competitive enzymes.
Two enzymes emerged from the screen as competitive targets for the oxadiazole ketone compounds detailed herein: triacylglycerol hydrolase (TGH) and an uncharacterized membrane-bound hydrolase that lacks known substrates and function (KIAA1363) (Kidd, D., et al., 2001; Liu, Y., et al., 1999; Leung, D., et al., 2003).

rats [4] = details: cited from earlier work
rats [5] = details: WO 04/033652; cited from earlier work
FAAH [6] = target: T5, FAAH (Homo sapiens, UniProt O00519); details: cited from earlier work
T5 sequence (O00519 1-579): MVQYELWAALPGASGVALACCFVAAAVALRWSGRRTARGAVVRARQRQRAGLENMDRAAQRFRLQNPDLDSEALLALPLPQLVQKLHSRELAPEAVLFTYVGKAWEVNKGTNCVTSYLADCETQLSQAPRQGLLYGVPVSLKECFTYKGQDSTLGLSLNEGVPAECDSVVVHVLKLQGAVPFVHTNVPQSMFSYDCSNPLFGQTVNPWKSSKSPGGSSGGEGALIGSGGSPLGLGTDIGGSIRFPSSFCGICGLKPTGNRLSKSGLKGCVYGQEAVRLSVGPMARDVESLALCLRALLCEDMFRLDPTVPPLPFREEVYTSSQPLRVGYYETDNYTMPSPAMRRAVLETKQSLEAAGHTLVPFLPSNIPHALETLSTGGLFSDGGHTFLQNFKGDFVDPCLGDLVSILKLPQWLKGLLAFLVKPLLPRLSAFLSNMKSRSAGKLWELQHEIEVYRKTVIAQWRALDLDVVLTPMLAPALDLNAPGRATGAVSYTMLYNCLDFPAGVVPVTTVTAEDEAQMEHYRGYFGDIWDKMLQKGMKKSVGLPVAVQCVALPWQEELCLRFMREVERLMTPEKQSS

CREAE mice = details: Baker 2001; cited from earlier work
rats [7] = details: Kathuria 2003; cited from earlier work
rats [8] = details: rat; Kathuria 2003; cited from earlier work
rats [9] = details: WO 02/087569; cited from earlier work
rats [10] = details: WO 02/087569; cited from earlier work; remark: listed apart in the source
[11] = Table 1, Dixon method, 14C-oleamide substrate, pH 9.0, 20-23° C., read-out: Ki
[12] = Table 2 (repeats the enzyme assay Ki), read-out: FAAH Ki

Ki (FAAH [1]; [11]) | IC50 (FAAH [2]) | IC50 (KIAA1363) | IC50 [3] | SMILES | further results
1 nM | 20 nM | > 100 µM | 100 nM | O=C(CCCCCCc1ccccc1)c1nnc(-c2cccnc2)o1 [Example 9, 7-Phenyl-1-[5-(pyridin-3-yl)-1,3,4-oxadiazol-2-yl]-heptan-1-one] | 
0.77 nM | 0.6 nM | 60 µM | 200 nM | O=C(CCCCCCCc1ccccc1)c1nnc(-c2ccccn2)o1 [Example 3, 8-Phenyl-1-[5-(pyridin-2-yl)-1,3,4-oxadiazol-2-yl]-octan-1-one] | 
 | 1 nM | > 100 µM | 80 nM | O=C(CCCCCCc1ccccc1)c1nnc(-c2ccco2)o1 [Example 11] | 
3 nM |  |  |  | CCCCCCCC/C=C\CCCCCCCC(=O)c1nnc(-c2ccccn2)o1 [Example 5, 1-[5-(Pyridin-2-yl)-1,3,4-oxadiazol-2-yl]-octadec-9-en-1-one] | 
16 nM |  |  |  | CCCCCCCC/C=C\CCCCCCCC(=O)c1nnc(-c2ccccc2)o1 [Example 7, 1-(5-Phenyl-1,3,4-oxadiazol-2-yl)-octadec-9-en-1-one] | 
0.85 nM | 4 nM | 90 µM | 30 nM | O=C(CCCCCc1ccccc1)c1nnc(-c2ccccn2)o1 [Example 2, 6-Phenyl-1-[5-(pyridin-2-yl)-1,3,4-oxadiazol-2-yl]-hexan-1-one] | 
 | 1 nM | 50 µM | 140 nM | O=C(CCCCCCc1ccccc1)c1nnc(-c2ccccn2)o1 [Example 1, 7-Phenyl-1-[5-(pyridin-2-yl)-1,3,4-oxadiazol-2-yl]-heptan-1-one] | 
 |  |  |  | O=C(CCCCCCc1ccccc1)c1ncc(-c2ccccn2)o1 [OL-135] | analgesic efficacy/activity in hot plate test (rats [4]): analgesic activity; analgesic activity in tail emersion test (rats [5]): analgesic activity; FAAH inhibition (FAAH [6]): potent inhibitor
 |  |  |  | CCCCCCCCCCCCCCCCS(=O)(=O)F [AM374] | spasticity (CREAE mice): significantly reduce spasticity
0.83 nM | 0.8 nM | 3 µM | 500 nM | O=C(CCCCCCCCc1ccccc1)c1nnc(-c2ccccn2)o1 [Example 4, 9-Phenyl-1-[5-(pyridin-2-yl)-1,3,4-oxadiazol-2-yl]-nonan-1-one] | Ki (FAAH [1]; [12]): 0.83 nM
1 nM | 20 nM | > 100 µM | 30 nM | O=C(CCCCCCc1ccccc1)c1nnc(-c2ccncc2)o1 [Example 10, 7-Phenyl-1-[5-(pyridin-4-yl)-1,3,4-oxadiazol-2-yl]-heptan-1-one] | 
2 nM | 25 nM | > 100 µM | 250 nM | O=C(CCCCCCc1ccccc1)c1nnc(-c2ccccc2)o1 [Example 6, 7-Phenyl-1-(5-phenyl-1,3,4-oxadiazol-2-yl)-heptan-1-one] | Ki (FAAH [1]; [12]): 2 nM
 |  |  |  | NC(=O)c1cccc(-c2cccc(OC(=O)NC3CCCCC3)c2)c1 [URB-597] | analgesic efficacy/activity in hot plate test (rats [4]): analgesic efficacy; efficacy in zero plus maze model of anxiety (rats [7]): efficacy; analgesic efficacy in formalin test (rats [8]): analgesic efficacy
 |  |  |  | Cc1nc(-c2ccccc2)c(-c2ccccc2)n1CCCCCCNC(=O)Oc1ccccc1F [BMS-1] | analgesic effect, Chung spinal nerve ligation model (rats [9]): analgesic effect; analgesic effect, Hargraves test (rats [10]): analgesic effect
